The values that follow come from patent publication US4563463A, “2-Oxo-1,3-oxazolo[4,5-h] quinolines useful as anti-allergy agents” (priority 1984, dated 1986).

Each structure is given as a SMILES string. Where two headings read alike, the source gives them in different places. A value given as a limit tells only on which side of the number the result lay.

Experiment [1] has as its system Rat Passive Cutaneous Anaphylaxis. Put plainly: Rat Passive Cutaneous Anaphylaxis (PCA) Screen: inhibition of wheal formation. The format is in vivo. The note with it: for ED50: Rattus norvegicus; for inhibition of wheal formation in the PCA test: 10 mg/kg, intraperitoneal. The text has this: The compounds of this invention have potent activity in inhibiting the formation of a wheel when screened according to the Rat Passive Cutaneous Anaphylaxis (PCA) Screen as described by I. Mota, Life Sciences, 7, 465 (1963) and Z. Ovary, et al. Proceedings of Society of Experimental Biology and Medicine, 81, 584 (1952).

For experiment [2], the system named is passively sensitized Rat Mast Cells. Briefly: Rat Mast Cell (RMC) test: inhibition of histamine release from passively sensitized Rat Mast Cells. The note with it: for RMC % inh.: at 50 μm (number in parentheses); for IC50: Mast cell, histamine release, passively sensitized rat mast cells, read-out: I50 value in the RMC test. The format is cell-based. From the text:
In addition, the compounds of this invention have potent activity as inhibitors of histamine release from passively sensitized Rat Mast Cells according to the porcedure described by E. Kusner, et al., Journal of Pharmacology and Experimental Therapeutics, 184, 41 (1973).

Setting [3] is: PO, 125 mg/kg (number in parentheses).
Where [4] appears, read: PO, 25 mg/kg (number in parentheses).

For the compound `CC(C(=O)n1c(=O)oc2c3ncccc3c(Cl)cc21)c1ccccc1` (centres unmarked) [Example 23], the “PCA % inh. IP” value in experiment [1] (IP, 125 mg/kg (number in parentheses)) stood at 34%. Besides, the RMC % inh. in experiment [2] amounted to 16%.

For the compound `O=c1[nH]c2ccc3cccnc3c2o1` [Example 18, 2-Oxo-3H-oxazolo[4,5-h]quinoline], the ED50 in experiment [1] (IP, Table I, read-out: PCA ED50 IP) worked out at 10 mg/kg; in experiment [1] (PO, Table I, read-out: PCA ED50 PO), 4 mg/kg. The RMC % inh. in experiment [2] is listed as below 30%.

`CC(=O)n1c(=O)oc2c3ncccc3ccc21` [Example 20, 3-Acetyl-2-oxo-3H-oxazolo[4,5-h]quinoline]: the “PCA % inh. PO” value in experiment [1] (setting [3]) amounted to 14%. Besides, the RMC % inh. in experiment [2] amounted to 18%.

For the compound `COC(=O)c1nc2cc(Cl)c3cccnc3c2o1` [Example 1C, 2-Carbomethoxy-5-chloro-1,3-oxazolo-[4,5-h]quinoline], the ED50 came out at 0.5 mg/kg in experiment [1] (ip, intraperitoneal route, read-out: E50 value in PCA test) and 1 mg/kg in experiment [1] (oral route, read-out: E50 value in PCA test). In experiment [2], the IC50 came to 300 nM.

`COc1cccc(C(=O)n2c(=O)oc3c4ncccc4c(Cl)cc32)c1` [Example 22]: in experiment [1] (PO, 100 mg/kg (number in parentheses)), the “PCA % inh. PO” value is 43%.

As for `O=C([O-])c1nc2cc(Cl)c3cccnc3c2o1.[Na+]` [Example 14, 5-chloro-1,3-oxazolo-[4,5-h]quinoline-2-carboxylate, sodium salt], the “inhibition of wheal formation in the PCA test” value in experiment [1] is listed as 51%. Further, the IC50 in experiment [2] came to 100 nM.

On to `CCOC(=O)c1nc2cc(Cl)c3cccnc3c2o1` [Example 4, 2-carboethoxy-5-chloro-1,3-oxazolo-[4,5-h]quinoline], for which, in experiment [1], the “inhibition of wheal formation in the PCA test” value was found to be 59%. Moreover, the IC50 in experiment [2] was 100 nM.

In the case of `Cn1c(=O)oc2c3ncccc3c(Cl)cc21` [Example 25, 5-Chloro-3-methyl-2-oxo-3H-oxazolo[4,5-h]quinoline], the “PCA % inh. PO” value in experiment [1] (setting [3]) was found to be 51%. Moreover, the RMC % inh. in experiment [2] came to 0%.

In the case of `O=c1[nH]c2cc(Cl)c3cccnc3c2o1` [Example 19], the “PCA % inh. PO” value in experiment [1] (setting [4]) turned out to be 0%.

In the case of `CN(C)C(=O)n1c(=O)oc2c3ncccc3c(Cl)cc21` [Example 24], in experiment [1] (setting [4]), the “PCA % inh. PO” value is 0%. Moreover, the RMC % inh. in experiment [2] was determined as 18%.
